In US4869904A, “Sustained release drug preparation” (Nisshin Flour Milling Co., Ltd., priority 1986, dated 1989):
Structures can show the parent of a compound that is named as a salt.

Assay: Dissolution and release of powder samples in water (FIG. 2)
Assay type: physicochemical
Settings: alone
Method: The formation of an inclusion complex of a medical compound with an alkylated cyclodextrin derivative in accordance with the process described above was confirmed by various methods such as powder X-ray diffraction, dissolution behavior, scanning electron microscope analysis, differential thermal analysis (DTA) and infrared absorption (IR). Inclusion complexes were prepared using diltiazem hydrochloride as an exemplary medical compound, and the behavior of dissolution and release of diltiazem from the inclusion complex in the powder form, as well as the behavior of dissolution and release of diltiazem from compressed tablets containing the inclusion complex were determined in order to confirm the complexing reaction and to evaluate the sustained release property, respectively. Further, the inclusion complex was administered orally to rats, and changes in the plasma concentration of the medical compound were then measured. While taking the determined dissolution and release behavior of the diltiazem into parallel consideration, the achievement of the sustained release property of the inclusion complex was confirmed. It was also proven that the dissolution and release rate of the medical compound, diltiazem, could be controlled at will, by using the ethylated cyclodextrins as the host compound for formation of inclusion complexes. […]

time to dissolution in water to an extent of 100%: about 5 minutes
SMILES: COc1ccc([C@@H]2Sc3ccccc3N(CCN(C)C)C(=O)[C@@H]2OC(C)=O)cc1 [diltiazem hydrochloride]
